The values that follow come from patent publication US7390783B2, “Charged phospholipid compositions and methods for their use” (Ottawa Heart Institute Research Corporation, priority 2000, dated 2008).

For series [1], the system named is lipoprotein CE and FC in whole blood (red blood cells). In words: Incubation of whole blood with PC or PI vesicles: lipoprotein CE and FC. It is filed as cell-based, human. On the procedure: Referring now to FIG. 4, there is graphically depicted the effect of PI or PC vesicles on lipoprotein CE and FC. Incubation of whole blood with PC vesicles results in a 60% increase in the CE content of the lipoproteins, while FC content is reduced by about 10%. […] Negatively charged phospholipids appeared to promote a reciprocal exchange of CE for FC between red blood cells and the lipoprotein particles. […] It has previously been taught that red blood cells cannot store CE and therefore utilize a membrane-bound CE hydrolase to maintain membrane FC levels. Without wishing to be bound by theory, the results therefore indicate that PI stimulates the degradation of lipoprotein CE.

The test system of series [2] is faecal cholesterol output. In words: Faecal cholesterol excretion after PI or PC injection. It is filed as in vivo, rabbit. On the procedure:
Rabbits are injected with 40 μmol PI or PC vesicles containing 400 μCi […]. Animals are sacrificed at 30 min, and bile is aspirated from the gall bladder. In addition the livers are harvested, homogenized and tissue radioactivity determined. Sterol excretion in the faeces is measured similarly except that faecal cholesterol levels are measured over a time period of 96 hours. Referring now to FIG. 7, there is graphically depicted the effect of PI injection associated with sterol excretion. […] PC injection into a rabbit had no effect on cholesterol excretion, while PI injection enhanced faecal cholesterol output by about 300% at 2 days post injection. The increase in cholesterol output returned to normal by about day 4.

The next series has as its target T1, lipoprotein lipase (Homo sapiens, UniProt P06858).
T1 sequence (P06858 28-475): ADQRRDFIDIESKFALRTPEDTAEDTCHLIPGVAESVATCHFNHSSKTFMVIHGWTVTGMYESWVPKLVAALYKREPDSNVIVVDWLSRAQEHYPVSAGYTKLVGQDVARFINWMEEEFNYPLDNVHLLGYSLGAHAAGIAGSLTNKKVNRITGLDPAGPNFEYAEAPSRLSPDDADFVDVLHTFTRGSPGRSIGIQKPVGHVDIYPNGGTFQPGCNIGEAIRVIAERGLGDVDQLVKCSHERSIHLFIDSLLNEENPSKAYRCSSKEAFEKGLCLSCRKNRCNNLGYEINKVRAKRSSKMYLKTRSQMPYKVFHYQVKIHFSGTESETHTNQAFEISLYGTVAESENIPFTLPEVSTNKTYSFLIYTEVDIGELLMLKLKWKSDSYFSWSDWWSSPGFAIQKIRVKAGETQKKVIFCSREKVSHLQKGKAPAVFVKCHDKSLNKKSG
Kind of series: Lipid hydrolysis by lipoprotein lipase in plasma enriched with charged lipid. Type of series: biochemical. Conditions: not shown. From the text:
Referring now to FIG. 10, there is shown the effect of lipoprotein charge on hepatic lipase. High density lipoprotein particles were enriched to contain various amounts of anionic or cationic lipids and then characterized as substrates for pure human hepatic lipase. Decreasing the net negative charge on the lipoprotein was associated with a reduction in the lipolytic activity of is hepatic lipase. Lipoprotein charge can also be used to regulate lipoprotein lipase. […] Lipid hydrolysis by hepatic or lipoprotein lipase can therefore be affected by alterations in the charge properties of plasma lipoproteins.

In another series the test system is Human plasma. Kind of series: Plasma clotting time (prothrombin time). It is filed as biochemical. Conditions: human plasma incubated with increasing amounts of vesicles, 24 h at 4° C. On the procedure: Referring now to FIG. 11, there is shown the effect of charged lipid on blood coagulation. Human plasma was incubated with various amounts of uncharged vesicles, phosphatidylcholine (PC) or anionic vesicles, phosphatidylinositol (PI), for 24 h at 4° C. Prothrombin time was then measured with the use of a commercially available kit.

For the next series, the system named is cytomegalovirus (CMV). In words: Clearance of cytomegalovirus from the plasma of a rabbit. It is filed as in vivo. Conditions: 36 mg vesicles; blood sample 10 minutes post injection. On the procedure: Rabbits were injected with 8×10^10 cytomegalovirus (CMV) particles and then with 36 mg of either uncharged vesicles, phosphatidylcholine (PC), or anionic vesicles, phosphatidylinositol (PI). Blood samples were taken at specific intervals and the amount of virus in the blood samples was determined by immunometric analysis.

For the compound `CCCCCCCC/C=C\CCCCCCCC(=O)O[C@H](COC(=O)CCCCCCCCCCCCCCC)COP(=O)(O)O[C@@H]1[C@H](O)[C@H](O)[C@@H](O)[C@H](O)[C@H]1O` [PI, 1-palmitoyl-2-oleoyl phosphatidylinositol], in series [1], the “increase of lipoprotein FC levels” value is “about 40%” and the “reduction of lipoprotein CE” value is reported as “about 40%”. Also, the “faecal cholesterol output enhanced by” value in series [2] (2 days post injection) is reported as “about 300%”. The “increase in cholesterol output returned to normal by” value in series [2] (rabbit, in vivo) was ~4 days. In addition, the “effect on lipid hydrolysis by lipoprotein lipase” value at lipoprotein lipase is recorded as “stimulate lipid hydrolysis”. Moreover, the “effect on plasma clotting time (prothrombin time)” value with Human plasma is “caused an inhibition to the formation of prothrombin”. For the same compound, in the series on cytomegalovirus (CMV), the “increased rate of clearance of the CMV injectate relative to PC” value is 1.7 fold.
